Patent publication US20080287653A1, “METHOD FOR PRODUCING INHIBITORS AND INHIBITORS FORMED THEREFROM” (THE UNIVERSITY OF AKRON, priority 2007, published 2008)
Non-standard residues stand in square brackets, D forms with d. Residues, ends and D or L forms follow the SMILES beside them. Lys(Thioacetyl) = CC(=S)NCCCC[C@H](N)C(=O)O

Legend:
Type in all cases: biochemical
[1] = molecular target: T1, SIRT1 (Homo sapiens, UniProt Q96EB6); test: HPLC-based SIRT1 inhibition assay with purified GST-SIRT1
T1 construct: made in house
T1 sequence (Q96EB6 1-747): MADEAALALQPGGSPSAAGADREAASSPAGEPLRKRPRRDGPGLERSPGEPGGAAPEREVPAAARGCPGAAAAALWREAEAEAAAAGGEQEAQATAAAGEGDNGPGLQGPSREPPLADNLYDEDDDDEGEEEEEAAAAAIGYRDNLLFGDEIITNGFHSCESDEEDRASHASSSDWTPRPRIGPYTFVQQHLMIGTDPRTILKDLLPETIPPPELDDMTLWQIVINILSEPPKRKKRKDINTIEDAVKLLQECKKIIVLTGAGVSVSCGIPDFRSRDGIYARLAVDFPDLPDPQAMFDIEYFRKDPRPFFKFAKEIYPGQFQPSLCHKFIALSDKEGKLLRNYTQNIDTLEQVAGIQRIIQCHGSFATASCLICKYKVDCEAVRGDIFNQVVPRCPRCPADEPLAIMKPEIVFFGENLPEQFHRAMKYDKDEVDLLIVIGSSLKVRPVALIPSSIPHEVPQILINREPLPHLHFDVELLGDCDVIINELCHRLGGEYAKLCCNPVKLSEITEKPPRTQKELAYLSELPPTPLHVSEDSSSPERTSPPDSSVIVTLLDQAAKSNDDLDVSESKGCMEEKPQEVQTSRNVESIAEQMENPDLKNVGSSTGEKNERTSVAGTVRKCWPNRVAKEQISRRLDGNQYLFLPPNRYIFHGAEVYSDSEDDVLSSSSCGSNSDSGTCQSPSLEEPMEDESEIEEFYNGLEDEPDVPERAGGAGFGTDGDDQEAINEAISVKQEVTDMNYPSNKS
Experimental: Inhibition assays with purified SIRT1, SIRT2, and SIRT3. GST-SIRT1 that could be produced in a laboratory was used for the SIRT1 inhibition assay. SIRT2 and SIRT3 are obtainable from commercial sources known to those skilled in the art. Consistent HPLC-based assay procedures were used for the inhibition assays with SIRT1, SIRT2, and SIRT3. […] An enzymatic reaction was initiated by the addition of an enzyme at 37° C. and was allowed to be incubated at 37° C.: 10 minutes as follows: for SIRT1 assay, or 60 minutes for SIRT2 and SIRT3 assays. Incubation was quenched at the indicated time with the following stop solution: 100 mM HCl and 0.16 M acetic acid. […] All peptide stock solutions were prepared in ddH2O. IC50 values were estimated from Dixon plots (1/v0 vs. [inhibitor]) as an indication of the inhibition potency.

[2] = molecular target: T2, SIRT3 (Homo sapiens, UniProt Q9NTG7); test: HPLC-based SIRT3 inhibition assay with purified SIRT3; details: SIRT3 vs SIRT2
T2 construct: purchased
T2 sequence (Q9NTG7 1-399): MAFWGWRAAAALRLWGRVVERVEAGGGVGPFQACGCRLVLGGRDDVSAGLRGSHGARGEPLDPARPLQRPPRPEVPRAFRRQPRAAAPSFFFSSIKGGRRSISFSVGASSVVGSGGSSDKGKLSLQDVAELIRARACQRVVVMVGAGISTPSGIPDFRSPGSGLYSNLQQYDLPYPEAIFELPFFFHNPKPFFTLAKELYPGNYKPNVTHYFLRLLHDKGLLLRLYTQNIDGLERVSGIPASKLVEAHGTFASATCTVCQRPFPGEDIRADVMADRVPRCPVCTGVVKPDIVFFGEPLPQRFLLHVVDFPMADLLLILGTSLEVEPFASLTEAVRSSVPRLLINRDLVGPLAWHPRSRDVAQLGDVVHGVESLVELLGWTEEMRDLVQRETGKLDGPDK
Experimental: (§1) Inhibition assays with purified SIRT1, SIRT2, and SIRT3. GST-SIRT1 that could be produced in a laboratory was used for the SIRT1 inhibition assay. SIRT2 and SIRT3 are obtainable from commercial sources known to those skilled in the art. Consistent HPLC-based assay procedures were used for the inhibition assays with SIRT1, SIRT2, and SIRT3. In brief, an inhibition assay solution had the following components: 25 mM (or 50 mM for SIRT2 assay) Tris.HCl (pH 8.0) 137 mM NaCl, 2.7 mM KCl, 1 mM MgCl2, 1 mg/mL BSA (SIGMA Cat. #A3803 with reduced fatty acid content, for SIRT2 assay only), 0.5 mM β-NAD^+, 0.3 mM peptide substrate (peptide 1b for SIRT1 and SIRT2 assays; peptide 3b for SIRT3 assay), an inhibitor (peptide 1a, 2, or 3a) with varied concentrations including 0, and an enzyme (GST-SIRT1, 0.15 μM; SIRT2, 0.3 μM; or SIRT3, 2.0 μM). […] An enzymatic reaction was initiated by the addition of an enzyme at 37° C. and was allowed to be incubated at 37° C.: 10 minutes as follows: for SIRT1 assay, or 60 minutes for SIRT2 and SIRT3 assays. […] The enzymatic deacetylation products (peptide 1c in SIRT1 and SIRT2 assays; peptide 3c in SIRT3 assay) were confirmed by their comigration with the chemically synthesized authentic samples and by MALDI-TOF mass spectrometric analysis, and were quantified by HPLC peak integration and comparison with those of synthetic authentic samples. […]

[3] = molecular target: T3, SIRT2 (Homo sapiens, UniProt Q8IXJ6); test: HPLC-based SIRT2 inhibition assay with purified SIRT2; details: SIRT2 vs SIRT3
T3 construct: purchased
T3 sequence (Q8IXJ6 1-389): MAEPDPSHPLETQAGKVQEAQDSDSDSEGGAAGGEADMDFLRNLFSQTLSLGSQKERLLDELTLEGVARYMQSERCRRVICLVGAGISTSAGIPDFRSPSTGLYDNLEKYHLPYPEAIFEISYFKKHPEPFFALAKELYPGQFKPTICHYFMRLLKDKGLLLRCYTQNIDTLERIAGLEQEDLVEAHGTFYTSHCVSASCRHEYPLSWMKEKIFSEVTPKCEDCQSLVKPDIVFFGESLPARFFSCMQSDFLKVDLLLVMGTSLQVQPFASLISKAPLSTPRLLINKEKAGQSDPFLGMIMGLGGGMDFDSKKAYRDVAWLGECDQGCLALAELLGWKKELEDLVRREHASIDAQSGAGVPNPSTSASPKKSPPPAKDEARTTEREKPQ
Experimental: as §1

inhibition weaker for SIRT1 as compared to SIRT2 ([1]; SIRT1 vs SIRT2)	inhibition weaker for SIRT3 as compared to SIRT2 [2]	stronger inhibition with respect to SIRT1 than SIRT2 and SIRT3 ([1]; SIRT1 vs SIRT2 and SIRT3)	inhibition potency for SIRT2 relative to SIRT3 [3]	Structure (SMILES)
about 10 fold	about 40 fold	–	–	CC[C@H](C)[C@H](NC(=O)[C@@H](NC(=O)[C@H](CCCCNC(C)=S)NC(=O)[C@H](CC(=O)O)NC(=O)[C@H](CO)NC(=O)[C@@H]1CCCN1C(=O)[C@@H](N)CCSC)[C@@H](C)O)C(=O)NCC(=O)NCC(=O)O [Peptide 2] (H-MPSD[Lys(Thioacetyl)]TIGG-OH)
–	–	about 5 fold	comparably potent inhibitor	CC[C@H](C)[C@H](NC(=O)[C@@H](NC(=O)[C@H](CCCCN)NC(=O)[C@H](CCCNC(=N)N)NC(=O)[C@H](CC(C)C)NC(=O)[C@H](CC(C)C)NC(=O)[C@H](CCCNC(=N)N)NC(=O)[C@H](CCCNC(=N)N)NC(=O)[C@H](CCSC)NC(=O)[C@@H](NC(=O)[C@H](CCCCNC(C)=S)NC(=O)CNC(=O)[C@H](CO)NC(=O)[C@H](CCCNC(=N)N)NC(=O)[C@@H](NC(=O)[C@H](CCCCN)NC(=O)[C@@H]1CCCN1C(=O)[C@H](CC(C)C)NC(=O)[C@H](CCCNC(=N)N)NC(=O)[C@@H](N)CCCCN)[C@@H](C)O)C(C)C)[C@@H](C)CC)C(=O)O [Peptide 3a] (H-KRLPKTRSG[Lys(Thioacetyl)]VMRRLLRKII-OH)
